Assay results published in BindingDB's records for doi:10.1038/nchembio.614 (National Cancer Institute-Frederick, 2011).
Numbered stars: 1 amine (or outer) side, 2 acyl side, 3 side chain; on linkers, the order of the positions; unused ones are H or OH. Square brackets hold non-standard residues; d marks the D form. Peptide text beside a SMILES is read from it. ξ: configuration not given here. X3 = C[C@@H](OP(=O)(O)OCC[C@@H](O)CO)[C@H](N[*:1])C(=O)[*:2]; X20 = O=C([C@H](Cc1cncn1CC[C@@H](O)CO)N[*:1])[*:2]; X13 = COP(=O)(O)O[C@H](C)[C@H](N[*:1])C(=O)[*:2]; pT = C[C@@H](OP(=O)(O)O)[C@H](N)C(=O)O; ξP = O=C(O)C1CCCN1

Molecular target: Serine/threonine-protein kinase PLK1 (Homo sapiens, UniProt P53350)
Assay: Inhibition Assay
Details: pH 8; 25 °C
Text: The evaluation of Plk1 PBD binding affinities of the synthetic compounds using an ELISA-based 96-well assay.

Sequence of Serine/threonine-protein kinase PLK1 (P53350 whole entry): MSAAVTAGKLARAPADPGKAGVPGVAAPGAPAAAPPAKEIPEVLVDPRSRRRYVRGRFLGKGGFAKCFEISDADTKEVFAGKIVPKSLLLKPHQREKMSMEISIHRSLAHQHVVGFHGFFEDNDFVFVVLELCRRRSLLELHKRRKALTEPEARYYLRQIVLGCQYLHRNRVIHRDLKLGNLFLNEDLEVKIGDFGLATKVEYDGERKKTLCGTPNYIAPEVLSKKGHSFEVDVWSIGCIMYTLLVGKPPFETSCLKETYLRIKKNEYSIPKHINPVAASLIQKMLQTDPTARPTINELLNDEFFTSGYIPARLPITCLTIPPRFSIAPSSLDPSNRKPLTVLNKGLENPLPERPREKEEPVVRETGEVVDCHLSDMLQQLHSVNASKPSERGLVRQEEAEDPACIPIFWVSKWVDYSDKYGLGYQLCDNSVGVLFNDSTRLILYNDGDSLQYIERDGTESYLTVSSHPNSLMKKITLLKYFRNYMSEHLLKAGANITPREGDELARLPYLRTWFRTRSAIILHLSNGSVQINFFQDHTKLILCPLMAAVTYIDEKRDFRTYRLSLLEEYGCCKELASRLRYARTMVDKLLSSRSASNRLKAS

Q: How did the IC50 turn out when COP(=O)(O)O[C@H](C)[C@H](NC(=O)[C@H](CO)NC(=O)[C@H](Cc1cnc[nH]1)NC(=O)[C@H](CC(C)C)NC(=O)C1CCCN1C(C)=O)C(N)=O (stereo partly drawn) [Phosphodiester analog, 3a] (Ac-[ξP]LHS[X13]-NH2) was run?
A: The IC50 was > 200 µM.

Q: CC(=O)N1CCCC1C(=O)N[C@@H](CC(C)C)C(=O)N[C@@H](Cc1cnc[nH]1)C(=O)N[C@@H](CO)C(=O)N[C@H](C(N)=O)[C@@H](C)OP(=O)(O)OCC[C@@H](O)CO (stereo partly drawn) [Phosphodiester analog, 3b] (Ac-[ξP]LHS[X3]-NH2) was tested. Which IC50 did it give?
A: The IC50 was > 200 µM.

Q: With CC(=O)N1CCCC1C(=O)N[C@@H](CC(C)C)C(=O)N[C@@H](Cc1cncn1CC[C@@H](O)CO)C(=O)N[C@@H](CO)C(=O)N[C@H](C(N)=O)[C@@H](C)OP(=O)(O)O (stereo partly drawn) [Phosphodiester analog, 4b] (Ac-[ξP]L[X20]S[pT]-NH2) as the molecule, how does the IC50 read?
A: Its IC50 is > 200 µM.
